How the values were obtained:
[1] = system: HGT-1 parietal cell model; assay: Proton secretion assay (intracellular proton index, IPX) in the HGT-1 parietal cell model; type: cell-based; conditions: for acid modulating effect (indicator of satiety): among the amino acids listed in Table 1; for IPX [induced by 50 mM AA] D: D stereoisomer; for IPX [induced by 50 mM AA] D / IPX [induced by 50 mM AA] L: 50 mM amino acid, HGT-1 cells, IPX based on log 2 data of intracellular proton concentration, lower IPX = more protons secreted; for IPX [induced by 50 mM AA] L: L stereoisomer
Source text: The value of intracellular proton secretion (IPX) in the parietal cell model HGT-1 (proton secretion assay), which is a marker for gastric secretion, indicates the extent to which the amino acid is able to inhibit proton secretion and is thus indirectly a measure of saturation. The intracellular proton index (IPX) is based on log 2 data of intracellular proton concentration. The lower the IPX, the more protons are secreted. A low IPX is interpreted as stimulation of gastric acid, which in turn is a saturation signal.

[2] = sensory; cited from earlier work
neurons = conditions: concentration range 0.01 μM to 10 μM (0.003 mg/kg to 3 mg/kg); cited from earlier work
dopamine release = conditions: about 0.03 mg/kg (equivalent to 0.1 μM); cited from earlier work

Structure (SMILES)	IPX [induced by 50 mM AA] D [1]	IPX [induced by 50 mM AA] L [1]	further results
N=C(N)NCCC[C@@H](N)C(=O)O [D-arginine]	–	–	acid modulating effect (indicator of satiety) [1]: best acid modulating effect
NC(CO)C(=O)O (stereo not drawn) [SER]	0.87 ± 0.10	1.40 ± 0.12	–
N=C(N)NCCC[C@H](N)C(=O)O [ARG, arginine]	−2.37 ± 0.05	−2.71 ± 0.11	–
CCCCCCCCC(=O)NCc1ccc(O)c(OC)c1 [N-nonanoylvanillylamine, N-((4-hydroxy-3-methoxyphenyl-)methyl-)nonanamide]	–	–	detection threshold [2]: 0.107 mg/kg; irritation threshold [2]: 0.054 mg/kg; stimulation of serotonin release in neurons against the respective control (neurons): up to 270%; stimulation of dopamine release after acetylcholine stimulation against the respective control (dopamine release): up to 700%
CCCCC/C=C/C=C/C(=O)NCC(C)C [pellitorin, Pellitorin]	–	–	detection threshold [2]: 0.1 mg/kg
N=C(N)NCCC[C@H](N)C(=O)O [L-arginine]	–	–	acid modulating effect (indicator of satiety) [1]: best acid modulating effect
O=C(O)C1CCCN1 (stereo not drawn) [PRO]	0.63 ± 0.09	0.44 ± 0.08	–
CC(C)C(N)C(=O)O (stereo not drawn) [VAL]	−0.44 ± 0.17	0.99 ± 0.05	–
NC(Cc1ccccc1)C(=O)O (stereo not drawn) [PHE]	1.58 ± 0.10	0.50 ± 0.05	–
NC(Cc1c[nH]c2ccccc12)C(=O)O (stereo not drawn) [TRP]	−0.04 ± 0.04	−0.66 ± 0.23	–
CCC(C)C(N)C(=O)O (stereo not drawn) [ILE]	−0.40 ± 0.04	0.58 ± 0.07	–
CC(O)C(N)C(=O)O (stereo not drawn) [THR]	1.57 ± 0.05	1.43 ± 0.10	–
CC(C)CC(N)C(=O)O (stereo not drawn) [LEU]	1.10 ± 0.13	1.38 ± 0.14	–
CC(N)C(=O)O (stereo not drawn) [ALA]	−0.35 ± 0.08	0.87 ± 0.10	–

Reference: patent US20220071933A1, “COMBINATION REMEDY” (SYMRISE AG, priority 2019, published 2022)
